Measurements as given in US20080076824A1, “Compounds That Inhibit Replication Of Human Immunodeficiency Virus” (priority 2004, published 2008).
≈ marks a conversion by molar mass, not a printed value. Where two headings read alike, the source gives them in different places.

Experiments:
[1] = tested on: HIV (SF2 virus); assay: HIV infectivity assay, SF2-infected H9 cells, reverse transcriptase (RT) quantification in supernatant; format: cell-based
[2] = Stability of synthetic compounds (no method given); format: physicochemical
[3] = tested on: Herpes simplex virus-1 (KOS); details: HEL; reduces virus-induced cytopathogenicity by 50%
[4] = tested on: Herpes simplex virus-2 (G); details: HEL; reduces virus-induced cytopathogenicity by 50%
[5] = tested on: Vaccinia virus; details: HEL; reduces virus-induced cytopathogenicity by 50%
[6] = tested on: Vesicular stomatitis virus; details: HEL; reduces virus-induced cytopathogenicity by 50%
[7] = tested on: Herpes simplex virus-1 TK^− KOS ACV^r; details: HEL; reduces virus-induced cytopathogenicity by 50%
[8] = tested on: Coxsackie virus B4; assay: Antiviral activity in HeLa cell cultures, Coxsackie virus B4; format: cell-based; details: Enterovirus B, B4, reduces virus-induced cytopathogenicity by 50%, read-out: Minimum inhibitory concentration Coxsackie virus B4
Experimental: (§1) The cytotoxicity and antiviral activity of various concentrations of G-NH2 and GPG-NH2 were evaluated in cell cultures that were infected with various types of viruses. Conventional host cell culture, viral infection, and infectivity analysis for each different type of cell and virus were followed. Compounds that were known to inhibit replication of the particular types of viruses analyzed were used as controls.

[9] = tested on: Coxsackie virus B4; assay: Antiviral activity in Vero cell cultures, Coxsackie virus B4; format: cell-based; details: Enterovirus B, B4, reduces virus-induced cytopathogenicity by 50%, read-out: Minimum inhibitory concentration Coxsackie virus B4
Experimental: as §1

[10] = tested on: Parainfluenza-3 virus; assay: organism not typed; details: Vero, read-out: Minimum inhibitory concentration Parainfluenza-3 virus
[11] = tested on: Reovirus-1; assay: organism not typed; details: Vero, read-out: Minimum inhibitory concentration Reovirus-1
[12] = tested on: Herpes simplex virus-1 (KOS); assay: microbe, parasite or virus in culture; details: Human alphaherpesvirus 1, HEL, read-out: Minimum inhibitory concentration Herpes simplex virus-1 (KOS)
[13] = tested on: Herpes simplex virus-2 (G); assay: microbe, parasite or virus in culture; details: Human alphaherpesvirus 2, HEL, read-out: Minimum inhibitory concentration Herpes simplex virus-2 (G)
[14] = tested on: Vaccinia virus; assay: microbe, parasite or virus in culture; details: Orthopoxvirus vaccinia, HEL, read-out: Minimum inhibitory concentration Vaccinia virus
[15] = tested on: Vesicular stomatitis virus; assay: microbe, parasite or virus in culture; details: HEL, read-out: Minimum inhibitory concentration Vesicular stomatitis virus
[16] = tested on: Herpes simplex virus-1 TK^− KOS ACV^r; assay: microbe, parasite or virus in culture; details: Human alphaherpesvirus 1, HEL, read-out: Minimum inhibitory concentration Herpes simplex virus-1 TK^− KOS ACV^r
[17] = tested on: Vesicular stomatitis virus; assay: microbe, parasite or virus in culture; details: HeLa, read-out: Minimum inhibitory concentration Vesicular stomatitis virus
[18] = tested on: Respiratory syncytial virus; assay: microbe, parasite or virus in culture; details: human respiratory syncytial virus, HeLa, read-out: Minimum inhibitory concentration Respiratory syncytial virus
[19] = tested on: Sindbis virus; assay: microbe, parasite or virus in culture; details: Vero, read-out: Minimum inhibitory concentration Sindbis virus
[20] = tested on: Punta Toro virus; assay: microbe, parasite or virus in culture; details: Vero, read-out: Minimum inhibitory concentration Punta Toro virus
[21] = tested on: HIV-2 (ROD); assay: microbe, parasite or virus in culture; format: cell-based; details: Human immunodeficiency virus 2, CCRF-CEM; Table 19; read-out: EC50 (CEM) HIV-2 (ROD)
Experimental: Human T-lymphocytic CEM cells (4.5×10^5 cells per ml) were suspended in fresh cell culture medium and infected with HIV-1 (IIIB and NL4.3) or HIV-2 (ROD or EHO) at 100 CCID50 (1 CCID50 being the virus dose infective for 50% of the cell cultures) per ml of cell suspension. Then, 100 μl of the infected cell suspension were transferred to microplate wells, mixed with 100 μl of appropriate (freshly prepared) dilutions of the test compounds (i.e., at final concentrations of […]), and were further incubated at 37° C. After 4 to 5 days, giant cell formation was recorded microscopically in the CEM cell cultures. […] (See Table 1).
(§2) MT-4, C8166 or CEM cells (4 to 5×10^5 cells per ml) were suspended in fresh culture medium (RPMI-1640 medium supplemented with 10% fetal bovine serum (FBS) (BioWittaker Europe, Verviers, Belgium), 2 mM L-glutamine and […] NaHCO3). Subsequently, the cells were infected with HIV-1 (IIIB) or HIV-2(ROD) at ˜100 CCID50 (1 CCID50 being the dose infective for 50% of the cell cultures) per ml of cell suspension. Then, 100 μl of the infected cell suspension were transferred to 96-well microplate wells, mixed with 100 μl of the appropriate (5-fold) dilutions of the test compounds and further incubated at 37° C. After 4 to 5 days, giant cell formation was recorded microscopically in the CEM and C8166 cell cultures. The MT-4 cell cultures were treated with trypan blue and the number of viable cells was determined.

[22] = tested on: HIV-1 (IIIB); assay: microbe, parasite or virus in culture; details: Human immunodeficiency virus 1, IIIB
Experimental: as §2

[23] = tested on: HIV-2(ROD); assay: microbe, parasite or virus in culture
Experimental: as §2

[24] = Cytotoxicity (CC50) in MT-4 cells; format: cell-based; details: human, MT-4 cells
[25] = Cytotoxicity (CC50) in C8166 cells; format: cell-based; details: human, C8166 cells
[26] = tested on: human PBMC; assay: Mitogenic activity assay, [3H]dThd incorporation in human PBMC with or without PHA; format: cell-based; details: concentrations up to 200 μg/ml, absence of PHA
Experimental: The mitogenic activity assay was conducted as follows. Human PBMC were isolated from buffy coats and brought in RPMI-1640 cell culture medium supplemented with 10% FCS and 2 mM L-glutamine. The cell cultures were exposed to several concentrations of the test compounds for 3 days in the absence or presence of PHA (phytohemagglutinin) (Murex Biotech Ltd., Dartford, UK) at 2 μg/ml. Subsequently, 0.25 μCi [CH3^−3H]dThd was added and, after 20 hr incubation at 37° C., the cells were precipitated in the presence of 10% TCA and the precipitate was washed twice with 10% TCA, twice with 5% TCA and once with 70% ethanol. The precipitate, containing [^3H]DNA, was then examined for radioactivity in a liquid scintillation counter.

[27] = in vitro; details: human
[28] = tested on: HIV-1 (IIIB); assay: microbe, parasite or virus in culture; details: Human immunodeficiency virus 1, IIIB, CCRF-CEM
[29] = C8166, read-out: EC50 (C8166) HIV-1 (IIIB), Table 19
[30] = C8166, read-out: EC50 (C8166) HIV-1 (IIIB), Table 20
[31] = MT4, read-out: EC50 (MT-4) HIV-1 (IIIB)
[32] = MT4, read-out: EC50 (MT-4) HIV-1(IIIB)
[33] = Human immunodeficiency virus 2, C8166, read-out: EC50 (C8166) HIV-2 (ROD), Table 19
[34] = Human immunodeficiency virus 2, C8166, read-out: EC50 (C8166) HIV-2 (ROD), Table 20
[35] = Human immunodeficiency virus 2, MT4, read-out: EC50 (MT-4) HIV-2 (ROD), Table 19
[36] = Human immunodeficiency virus 2, MT4, read-out: EC50 (MT-4) HIV-2 (ROD), Table 20
[37] = read-out: EC50 (CEM) HIV-1 (IIIB), Table 19
[38] = read-out: EC50 (CEM) HIV-1(IIIB), Table 20

Which results are given for `CC(C)C(N)C(=O)NC(O)C(N)=O` [Formula Y, N-L-Valyl-α-Hydroxyglycinamide]?
HIV replication at 25 μM ([1]; 25 μM): neglible levels; IC50 ([1]; Human immunodeficiency virus 1, H9, 264 h, RT quantification, day 11, read-out: IC50): ~16 µM; stability [2]: stable

With `Nc1nc2c(ncn2COCCO)c(=O)[nH]1` [ACG, reference compound] as the compound, how does the “Minimum inhibitory concentration Herpes simplex virus-1 (KOS)” value [3] read?
Its value is 0.0768 µg/mL (≈ 0.341 µM).

What about the “Minimum inhibitory concentration Herpes simplex virus-2 (G)” value [4] of the same compound?
Its value is 0.0768 µg/mL (≈ 0.341 µM).

What about the “Minimum inhibitory concentration Vaccinia virus” value [5] of the same compound?
The value was >400 µg/mL.

And the “Minimum inhibitory concentration Vesicular stomatitis virus” value [6]?
Its value is >400 µg/mL.

What about the “Minimum inhibitory concentration Herpes simplex virus-1 TK^− KOS ACV^r” value [7] of the same compound?
Its value is 9.6 µg/mL (≈ 42.6 µM).

With `NC(=O)c1ncn([C@@H]2O[C@H](CO)[C@@H](O)[C@H]2O)n1` [Ribavirin] as the compound, how does the EC50 [8] read?
Its EC50 is 48 µg/mL (≈ 197 µM).

And the EC50 [9]?
Its EC50 is > 400 µg/mL.

What about the EC50 [10] of the same compound?
Its EC50 is 48 µg/mL (≈ 197 µM).

And the EC50 [11]?
Its EC50 is 16 µg/mL (≈ 65.5 µM).

What about the EC50 [12] of the same compound?
The EC50 was 48 µg/mL (≈ 197 µM).

What about the EC50 [13] of the same compound?
The EC50 was > 400 µg/mL.

And the EC50 [14]?
Its EC50 is 240 µg/mL (≈ 983 µM).

And the EC50 [15]?
Its EC50 is > 400 µg/mL.

And the EC50 [16]?
Its EC50 is 80 µg/mL (≈ 328 µM).

And the EC50 [17]?
Its EC50 is 9.6 µg/mL (≈ 39.3 µM).

And the EC50 [18]?
Its EC50 is 16 µg/mL (≈ 65.5 µM).

What about the EC50 [19] of the same compound?
Its EC50 is > 400 µg/mL.

And the EC50 [20]?
The EC50 was 48 µg/mL (≈ 197 µM).

Which stability [2] does the source give for `COC(N)C(N)=O` (stereo not drawn) [Formula G, alpha-methoxyglycinamide] here?
Its stability is “more stable than alpha-hydroxyglycinamide”.

Which results are given for `CN1C(=O)C(C)(C)NNC1=S` [Formula K]?
EC50 [21]: 65 ± 18 µM; EC50 [22, 29]: 346 µM; EC50 [22, 30]: 289 ± 81 µM; EC50 [22, 31]: > 580 µM; EC50 [22, 32]: > 1000 µM; EC50 [23, 33]: > 580 µM; EC50 [23, 34]: > 230 µM; EC50 [23, 35]: > 580 µM; EC50 [23, 36]: > 1000 µM; CC50 [24]: 906 ± 179 µM; CC50 [25]: 896 ± 265 µM; mitogenic activity against human PBMCs [26]: non-mitogenic; CC50 at 96 hr [27]: ≥ 1150 µM; EC50 [28, 37]: 115 µM; EC50 [28, 38]: 115 µM

For `Nc1nc2c(ncn2COC(CO)CO)c(=O)[nH]1` [DHPG, reference compound], which “Minimum inhibitory concentration Herpes simplex virus-1 (KOS)” value [3] is on record?
The value was 0.0038 µg/mL (≈ 0.0149 µM).

What about the “Minimum inhibitory concentration Herpes simplex virus-2 (G)” value [4] of the same compound?
Its value is 0.0192 µg/mL (≈ 0.0752 µM).

And the “Minimum inhibitory concentration Vaccinia virus” value [5]?
The value was 60 µg/mL (≈ 235 µM).

And the “Minimum inhibitory concentration Vesicular stomatitis virus” value [6]?
Its value is >400 µg/mL.

What about the “Minimum inhibitory concentration Herpes simplex virus-1 TK^− KOS ACV^r” value [7] of the same compound?
The value was 0.48 µg/mL (≈ 1.88 µM).

With `CN1C(=O)C2(CCCCC2)NNC1=S` [Formula M] as the compound, how does the EC50 [21] read?
The EC50 was 48 ± 14 µM.

And the EC50 [22, 29]?
The EC50 was > 480 µM.

What about the EC50 [22, 30] of the same compound?
Its EC50 is > 190 µM.

What about the EC50 [22, 31] of the same compound?
Its EC50 is > 480 µM.

What about the EC50 [22, 32] of the same compound?
The EC50 was > 900 µM.

What about the EC50 [23, 33] of the same compound?
Its EC50 is 480 µM.

And the EC50 [23, 34]?
Its EC50 is > 190 µM.

What about the EC50 [23, 35] of the same compound?
Its EC50 is > 480 µM.

What about the EC50 [23, 36] of the same compound?
The EC50 was > 900 µM.

And the CC50 [24]?
The CC50 was 455 ± 4.6 µM.

And the CC50 [25]?
Its CC50 is 488 ± 3.3 µM.

What about the “mitogenic activity against human PBMCs” value [26] of the same compound?
The value was “non-mitogenic”.

What about the CC50 at 96 hr [27] of the same compound?
The CC50 at 96 hr was ≥ 930 µM.

And the EC50 [28, 37]?
Its EC50 is 97 ± 42 µM.

And the EC50 [28, 38]?
Its EC50 is 97 ± 42 µM.
